Patent publication US20210355106A1, “NEW AMINO-PYRIMIDONYL-PIPERIDINYL DERIVATIVES, A PROCESS FOR THEIR PREPARATION AND PHARMACEUTICAL COMPOSITIONS CONTAINING THEM” (LES LABORATOIRES SERVIER, priority 2018, published 2021)

What was measured:
[1] = tested on: Z138 mantle cell lymphoma tumour cell lines; assay: In vitro cytotoxicity, MTT assay; format: cell-based; details: Z138 cells, exposed to the test compounds for 96 hours
Procedure: The cytotoxicity studies were evaluated by MTT [3-(4,5-dimethylthiaxol-2-yl)-2,5-diphenyltetrazolium bromide|assay and carried out on Z138 mantle cell lymphoma tumour cell lines. The cells are distributed onto microplates and exposed to the test compounds for 96 hours. MTT is then added for 4 hours and converted by NAD(P)H-dependent cellular oxidoreductase enzymes in forma/an, which has a purple color. The viable cell number is proportional to the production of formazan salts and cell viability can be quantified by the absorbance of the solution at 540 nm with a spectrophotometer (Carmichael et al., Cancer Res. 1987, 47, 936-942).

USP7 = target: T1, USP7 (Homo sapiens, UniProt Q93009, C315A); assay: Inhibition of USP7 by Fluorescence Intensity (FLINT) readings, Ubiquitin-Rhodamine-110 substrate; format: biochemical; details: 0.25 nM His-His-USP7 (aa208-560), 60 minutes at 30° C. preincubation; Ki determined from IC50 according to Cer et al.
T1 construct: 0.25 nM His-His-USP7 (aa208-560, |C315A|) was incubated with compound; His-His (N)
Procedure: USP7 activity was measured using Rhodamine-110 c-terminal labelled Ubiquitin as a substrate (UbiQ Bio), Incubation with USP7 results in the release of Rhodamine-110 leading to an increase in fluorescence which can be used in the continuous measurement of USP7 activity.
The USP7 reactions were performed in a 50 μL volume, in 384 well black solid low binding plates (Corning #3575). The reaction buffer consisted of 100 mM Bicine pH 8.0, 0.01% TritonX 100, 1 mM TCEP, and 10% DMSO.
0.25 nM His-His-USP7 (aa208-560, |C315A|) was incubated with compound (final concentration 10% DMSO) for 60 minutes at 30° C. The reaction was then initiated by the addition of 50) nM Ubiquitin-Rhodamine-110 substrate or 4 μM Ubiquitin-Rhodamine-110 substrate and the plate read every 3 minutes for 21 minutes to measure the release of Rhodamine-110. Fluorescence Intensity (FLINT) readings were measured using a Biomek Neo plate reader (Ex.485 nm, Em.535 nm).
The inhibition of increasing doses of compound was expressed as a percentage reduction in kinetic rate compared to the kinetic rates established between ‘DMSO only’ and ‘total inhibition’ controls (no USP7). The inhibitory concentrations that gave a 50% reduction in kinetic rate (IC50) were determined, from 11-point dose response curves, in XL-Fit using a 4-Parameter Logistic Model 205 (Sigmoidal Dose-Response Model). The K, values were determined from the IC50 values according to Cer et al. Nucleic Acids Res. 2009, July 1; 37 (WebServer issue): W441-W445.

T1 sequence (Q93009 208-560 C315A): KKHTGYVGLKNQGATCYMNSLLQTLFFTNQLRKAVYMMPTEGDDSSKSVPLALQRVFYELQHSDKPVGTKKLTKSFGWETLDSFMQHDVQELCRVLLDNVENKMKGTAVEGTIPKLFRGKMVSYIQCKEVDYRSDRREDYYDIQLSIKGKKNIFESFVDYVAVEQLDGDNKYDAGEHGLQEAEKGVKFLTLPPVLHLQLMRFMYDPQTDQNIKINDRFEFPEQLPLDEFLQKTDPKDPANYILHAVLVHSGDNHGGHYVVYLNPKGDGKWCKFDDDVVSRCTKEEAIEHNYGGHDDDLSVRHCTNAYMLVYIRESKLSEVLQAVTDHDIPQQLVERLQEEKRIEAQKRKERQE

Row | Ki (USP7) | Compound | IC50 ([1]; Homo sapiens, Z-138) | IC50 [1]
1 | 8.2 nM | Nc1c(Oc2ccc(F)cc2)ncn(CC2(O)CCN(C(=O)[C@@H]3CCN(C(=O)c4sc(I)cc4F)C[C@H]3c3ccccc3)CC2)c1=O [Example 39, 5-amino-3-({1-[(3R,4R)-1-(3-fluoro-5-iodothiophene-2-carbonyl)-3-phenylpiperidine-4-carbonyl]-4-hydroxypiperidin-4-yl}methyl)-6-(4-fluorophenoxy)pyrimidin-4(3H)-one] | 13 nM | 
2 | 3.7 nM | Nc1c(Oc2ccc(F)cc2)ncn(CC2(O)CCN(C(=O)[C@@H]3CCN(C(=O)c4cncc(F)c4)C[C@H]3c3ccccc3)CC2)c1=O [Example 134, 5-amino-6-(4-fluorophenoxy)-3-[[1-[(3R,4R)-1-(5-fluoropyridine-3-carbonyl)-3-phenyl-piperidine-4-carbonyl]-4-hydroxy-4-piperidyl]methyl]pyrimidin-4-one] | 17 nM | 
3 | 17.7 nM | Cc1nc(C2CCOCC2)sc1C(=O)N1CC[C@@H](C(=O)N2CCC(O)(Cn3cnc(Oc4ccc(F)cc4)c(N)c3=O)CC2)[C@H](c2ccccc2)C1 [Example 191, 5-amino-6-(4-fluorophenoxy)-3-[[4-hydroxy-1-[(3R,4R)-1-(4-methyl-2-tetrahydropyran-4-yl-thiazole-5-carbonyl)-3-phenyl-piperidine-4-carbonyl]-4-piperidyl]methyl]pyrimidin-4-one] | 20.1 nM | 
4 | 4.9 nM | Cc1cncc(C(=O)N2CC[C@@H](C(=O)N3CCC(O)(Cn4cnc(Oc5ccc(F)cc5)c(N)c4=O)CC3)[C@H](c3ccccc3)C2)c1 [Example 92, 5-amino-6-(4-fluorophenoxy)-3-({4-hydroxy-1-[(3R,4R)-1-(5-methylpyridine-3-carbonyl)-3-phenylpiperidine-4-carbonyl]piperidin-4-yl}methyl)pyrimidin-4(3H)-one] | 45.7 nM | 
5 | 12 nM | Nc1c(Oc2cccc(C(F)(F)F)c2)ncn(CC2(O)CCN(C(=O)[C@@H]3CCN(C(=O)c4sc(-c5ccc(C(F)(F)F)nc5)cc4F)C[C@H]3c3ccccc3)CC2)c1=O [Example 124, 5-amino-3-[[1-[(3R,4R)-1-[3-fluoro-5-[16-(trifluoromethyl)-3-pyridyl]thiophene-2-carbonyl]-3-phenyl-piperidine-4-carbonyl]-4-hydroxy-4-piperidyl]methyl]-6-[3-(trifluoromethyl)phenoxy]pyrimidin-4-one] | 31.5 nM | 
6 | 38.5 nM | Cc1nccc(CN2CC[C@@H](C(=O)N3CC[C@](O)(Cn4cnc(Oc5ccc(Cl)cc5)c(N)c4=O)C(F)(F)C3)[C@H](c3ccccc3)C2)n1 [Example 168] | 13.8 nM | 
7 | 4.44 nM | Cc1nc(-c2ccc(N(C)C)nc2)sc1C(=O)N1CC[C@@H](C(=O)N2CCC(O)(Cn3cnc(Oc4cccc(C(F)(F)F)c4)c(N)c3=O)CC2)[C@H](c2ccccc2)C1 [Example 126] | 29.5 nM | 
8 | 23.3 nM | Cc1nccc(CN2CC[C@@H](C(=O)N3CC[C@](O)(Cn4cnc(Oc5ccc(F)cc5)c(N)c4=O)C(F)(F)C3)[C@H](c3ccccc3)C2)n1 [Example 13, 5-amino-3-{[(4S)-3,3-difluoro-4-hydroxy-1-{(3R,4R)-1-[(2-methylpyrimidin-4-yl)methyl]-3-phenylpiperidine-4-carbonyl]piperidin-4-yl]methyl)-6-(4-fluorophenoxy)pyrimidin-4(31)-one] | 10.6 nM | 
9 | 4.2 nM | Cc1nc(N2CCCC2)sc1C(=O)N1CC[C@@H](C(=O)N2CCC(O)(Cn3cnc(Oc4ccc(F)cc4)c(N)c3=O)CC2)[C@H](c2ccccc2)C1 [Example 65, 5-amino-6-(4-fluorophenoxy)-3-[(4-hydroxy-1-{(3R,4R)-1-[4-methyl-2-(pyrrolidin-1-yl)-1,3-thiazole-5-carbonyl]-3-phenylpiperidine-4-carbonyl]piperidin-4-yl)methyl]pyrimidin-4(3H)-one] | 7.66 nM | 
10 | 36.5 nM | Nc1c(Oc2ccc(F)cc2)ncn(C[C@@]2(O)CCN(C(=O)[C@@H]3CCN(Cc4ncccn4)C[C@H]3c3ccccc3)CC2(F)F)c1=O [Example 204] | 26.9 nM | 
11 | 21 nM | Nc1c(Oc2ccc(F)cc2)ncn(CC2(O)CCN(C(=O)[C@@H]3CCN(C(=O)Nc4ccc(F)cc4)C[C@H]3c3ccccc3)CC2)c1=O [Example 84, (3R,4R)-4-[4-[[5-amino-4-(4-fluorophenoxy)-6-oxo-pyrimidin-1-yl]methyl]-4-hydroxy-piperidine-1-carbonyl]-N-(4-fluorophenyl)-3-phenyl-piperidine-1-carboxamide] | 18 nM | 
12 | 37 nM | Nc1c(Oc2ccc(F)cc2)ncn(C[C@@]2(O)CCN(C(=O)[C@@H]3CCN(C(=O)Nc4ccccc4)C[C@H]3c3ccccc3)CC2(F)F)c1=O [Example 77] | 13 nM | 
13 | 81.2 nM | COc1cc(Cl)cc(Oc2ncn(C[C@@]3(O)CCN(C(=O)[C@@H]4CCN(Cc5ccnc(C)n5)C[C@H]4c4ccccc4)CC3(F)F)c(=O)c2N)c1 [Example 175, 5-amino-6-(3-chloro-5-methoxy-phenoxy)-3-[[(4S)-3,3-difluoro-4-hydroxy-1-[(3R,4R)-1-[(2-methylpyrimidin-4-yl)methyl]-3-phenyl-piperidine-4-carbonyl]-4-piperidyl]methyl]pyrimidin-4-one] | 26.5 nM | 
14 | 7.8 nM | COc1cc(Oc2ncn(C[C@@]3(O)CCN(C(=O)[C@@H]4CCN(Cc5cnc(C)cn5)C[C@H]4c4ccccc4)CC3(F)F)c(=O)c2N)ccc1F [Example 154] | 11.4 nM | 
15 | 15.1 nM | Nc1c(Oc2ccc(F)cc2)ncn(CC2(O)CCN(C(=O)[C@@H]3CCN(C(=O)c4ccccc4)C[C@H]3c3ccccc3)CC2)c1=O [Example 36] | 8.93 nM | 
16 | 40.4 nM | COc1cc(Oc2ncn(C[C@@]3(O)CCN(C(=O)[C@@H]4CCN(Cc5ccnc(C)n5)C[C@H]4c4ccccc4)CC3(F)F)c(=O)c2N)ccc1Cl [Example 182] | 9.95 nM | 
17 | 64.1 nM | Nc1c(Oc2ccc(F)cc2)ncn(CC2(O)CCN(C(=O)[C@@H]3CCN(C(=O)c4cscn4)C[C@H]3c3ccccc3)CC2)c1=O [Example 28, 5-amino-6-(4-fluorophenoxy)-3-[[4-hydroxy-1-[(3R,4R)-3-phenyl-1-thiazole-4-carbonyl)piperidine-4-carbonyl-4-piperidyl]methyl]pyrimidin-4-one] | 138 nM | 
18 | 22.2 nM | Cc1ccc(-c2cccc(S(=O)(=O)N3CC[C@@H](C(=O)N4CCC(O)(Cn5cnc(Oc6ccc(F)cc6)c(N)c5=O)CC4)[C@H](c4ccccc4)C3)c2)cn1 [Example 159, 5-amino-6-(4-fluorophenoxy)-3-[[4-hydroxy-1-[(3R,4R)-1-[3-(6-methyl-3-pyridyl)phenyl]sulfonyl-3-phenyl-piperidine-4-carbonyl]-4-piperidyl]methyl]pyrimidin-4-one] | 8.18 nM | 
19 | 38.6 nM | Nc1c(Oc2ccc(F)cc2)ncn(CC2(O)CCN(C(=O)[C@@H]3CCN(C(=O)Nc4ccccc4C(F)(F)F)C[C@H]3c3ccccc3)CC2)c1=O [Example 128, (3R,4R)-4-[4-[[5-amino-4-(4-fluorophenoxy)-6-oxo-pyrimidin-1-yl]methyl]-4-hydroxy-piperidine-1-carbonyl]-3-phenyl-N-[2-(trifluoromethyl)phenyl]piperidine-1-carboxamide] | 75 nM | 
20 | 8 nM | Nc1c(Oc2ccc(F)cc2)ncn(CC2(O)CCN(C(=O)[C@@H]3CCN(C(=O)c4cccc(C5CCCNC5)c4)C[C@H]3c3ccccc3)CC2)c1=O (stereo partly drawn) [Example 116, 5-amino-6-(4-fluorophenoxy)-3-[(4-hydroxy-1-((3R,4R)-3-phenyl-1-[3-(piperidin-3-yl)benzoyl]piperidine-4-carbonyl}piperidin-4-yl)methyl]pyrimidin-4(3H)-one] |  | 

Row | Compound | Ki (USP7) | IC50 ([1]; Homo sapiens, Z-138) | IC50 [1]
21 | 5-amino-3-[(3SR,4SR)-3-fluoro-4-hydroxy-1-(3R,4R)-1-[4-methyl-2-(6-methyl-3-pyridyl)thiazole-5-carbonyl]-3-phenyl-piperidine-4-carbonyl]-4-piperidyl]methyl]-6-(4-fluorophenoxy)pyrimidin-4-one and 5-amino-3-[[(3RS,4RS)-3-fluoro-4-hydroxy-1-[(3R,4R)-1-[4-methyl-2-(6-methyl-3-pyridyl)thiazole-5-carbonyl]-3-phenyl-piperidine-4-carbonyl]-4-piperidyl]methyl]-6-(4-fluorophenoxy)pyrimidin-4-one [Example 198] | 10.7 nM |  | 3.14 nM
